By IC50 is commonly meant the midpoint of a concentration-inhibition curve.

The subject of one series is Breast tumoral cell line. Nature of the series: In vitro cytotoxic (antimitotic) activity on tumoral cell lines, breast. The series is classed as cell-based. The source says:
(§1) Taxol and colchicine are the comparison substances.
(§2) In vitro cytotoxic activity of some novel colchicine derivatives.

In a further series the test system is Lung tumoral cell line. Nature of the series: In vitro cytotoxic (antimitotic) activity on tumoral cell lines, lung. The class given is cell-based.
Source text: as §1, §2

Another series deals with Colon tumoral cell line. In words: In vitro cytotoxic (antimitotic) activity on tumoral cell lines, colon. The class given is cell-based.
Source text: as §1, §2

The test system of the next series is Ovary tumoral cell line. In words: In vitro cytotoxic (antimitotic) activity on tumoral cell lines, ovary. The series is classed as cell-based.
Source text: as §1, §2

For the next series, the system named is resistant cell lines. In words: cells. Conditions: read-out: In vitro cytotoxic activity, IC50, Cell. resist.
Source text: as §1
Formulations for the parenteral, oral, transdermal, epicutaneous administrations can be conveniently prepared.

For `COc1cc2c(c(OC)c1OC)-c1ccc(OC)c(=O)cc1[C@@H](NC(C)=O)CC2` [Colchicine, colchicine], the IC50 came to 4.4 nM with Breast tumoral cell line; 16 nM in the series on Lung tumoral cell line; 3.9 nM in the series on Colon tumoral cell line; 5.3 nM with Ovary tumoral cell line; 112 nM in the series with resistant cell lines.
For the compound `COc1c(OC(C)C)cc2c(c1OC)-c1ccc(SC)c(=O)cc1[C@@H](NC(=O)C(F)(F)F)CC2` [Compound IIZ, N-desacetyl-N-trifluoroacetyl-3-O-demethyl-3-O-isopropyl-thiocolchicine], the 50% inhibitory concentration (IC50) stood at 5 nM with Breast tumoral cell line; 19 nM in the series on Lung tumoral cell line; 1.8 nM in the series on Colon tumoral cell line; 9.4 nM with Ovary tumoral cell line; 11 nM in the series on resistant cell lines.
On to `COc1cc2c(c(OC)c1OC)-c1ccc(SC)c(=O)cc1[C@@H](NC(=O)[C@@H](NC(=O)C(F)(F)F)c1ccccc1)CC2` [Compound IVZ, N-(N-trifluoroacetyl-α-phenylglycyl)-desacetylthiocolchicine], for which the IC50 turned out to be 4.1 nM with Breast tumoral cell line; 12 nM in the series on Lung tumoral cell line; 2.2 nM with Colon tumoral cell line; 6.1 nM with Ovary tumoral cell line; 7 nM with resistant cell lines.
For the compound `COc1c(OC2CCCC2)cc2c(c1OC)-c1ccc(SC)c(=O)cc1[C@@H](NC(=O)C(F)(F)F)CC2` [Compound IZ, N-desacetyl-N-trifluoroacetyl-3-O-demethyl-3-O-cyclopentyl-thiocolchicine], the IC50 in the series with Breast tumoral cell line was 6.2 nM; with Lung tumoral cell line, 8 nM; with Colon tumoral cell line, 2.6 nM; with Ovary tumoral cell line it was 4.2 nM; with resistant cell lines it was 26 nM.
Regarding `CC(=O)O[C@H]1C(=O)[C@@]2(C)[C@H]([C@H](OC(=O)c3ccccc3)[C@]3(O)C[C@H](OC(=O)[C@H](O)[C@@H](NC(=O)c4ccccc4)c4ccccc4)C(C)=C1C3(C)C)[C@]1(OC(C)=O)CO[C@@H]1C[C@@H]2O` [Taxol, reference compound], the IC50 came to 3.2 nM in the series with Breast tumoral cell line; 1.7 nM with Lung tumoral cell line; 3.5 nM in the series on Colon tumoral cell line; 6.1 nM in the series on Ovary tumoral cell line; 299 nM with resistant cell lines.

The record behind these values is US5843910A, “Colchicine derivatives and the therapeutical use thereof” (Indena S.p.A., priority 1996, dated 1998).
